Three compounds from patent US20220226341A1, “Pharmaceutical Composition for Alzheimer's Disease” (Kyoto University, priority 2019, published 2022) can be followed below.

Chain of CDK9/CycT1 (P50750 whole entry): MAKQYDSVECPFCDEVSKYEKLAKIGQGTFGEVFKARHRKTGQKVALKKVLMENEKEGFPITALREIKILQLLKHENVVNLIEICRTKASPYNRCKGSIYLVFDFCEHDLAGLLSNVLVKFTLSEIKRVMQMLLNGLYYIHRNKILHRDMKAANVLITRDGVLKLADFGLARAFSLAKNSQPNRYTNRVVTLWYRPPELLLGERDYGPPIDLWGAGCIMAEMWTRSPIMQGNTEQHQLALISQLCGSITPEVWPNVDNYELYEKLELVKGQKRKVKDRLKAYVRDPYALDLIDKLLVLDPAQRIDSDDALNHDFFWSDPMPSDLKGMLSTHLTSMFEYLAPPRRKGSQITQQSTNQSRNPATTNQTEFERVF
Chain of CDK9/CycT1 (O60563 whole entry partner): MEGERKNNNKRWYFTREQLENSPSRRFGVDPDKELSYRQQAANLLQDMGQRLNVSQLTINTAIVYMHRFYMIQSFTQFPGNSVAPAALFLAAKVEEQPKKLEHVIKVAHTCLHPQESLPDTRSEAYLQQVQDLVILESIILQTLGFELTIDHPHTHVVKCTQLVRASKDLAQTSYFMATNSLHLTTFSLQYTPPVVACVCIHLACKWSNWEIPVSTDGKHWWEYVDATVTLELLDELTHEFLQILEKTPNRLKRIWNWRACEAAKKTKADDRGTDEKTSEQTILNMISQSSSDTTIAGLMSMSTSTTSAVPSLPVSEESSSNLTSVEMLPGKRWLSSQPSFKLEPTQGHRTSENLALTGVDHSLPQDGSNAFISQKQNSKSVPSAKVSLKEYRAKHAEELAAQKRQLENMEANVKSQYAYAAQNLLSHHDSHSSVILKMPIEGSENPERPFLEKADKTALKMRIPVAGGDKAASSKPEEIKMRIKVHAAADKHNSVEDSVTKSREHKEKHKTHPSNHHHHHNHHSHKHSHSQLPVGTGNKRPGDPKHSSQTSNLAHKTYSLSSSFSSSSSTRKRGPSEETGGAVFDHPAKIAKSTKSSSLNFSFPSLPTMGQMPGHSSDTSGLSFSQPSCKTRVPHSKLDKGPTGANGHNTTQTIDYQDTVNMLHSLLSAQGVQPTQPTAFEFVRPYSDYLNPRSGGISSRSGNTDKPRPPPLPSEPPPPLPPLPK

This assay concerns the target CDK9/CycT1 (Homo sapiens, UniProt P50750). The experiment in a line: CDK9 inhibitory activity, Off-chip Mobility Shift Assay (MSA). In kind it is biochemical. As to conditions: room temperature, one hour, read-out: IC50 value with respect to CDK9/CycT1. The procedure:
[Assay of CDK9 Inhibitory Activity]
The tests for confirming CDK9 inhibitory activity were carried out by the following procedure according to Off-chip Mobility Shift Assay (MSA).
A substrate/ATP/metal solution (4×) was prepared with use of a kit buffer (20 mM HEPES, 0.01% Triton X-100, 5 mM DTT, pH7.5). A kinase solution (2×) was prepared with use of an assay buffer.
2) The test substance solutions, the substrate/ATP/metal solution, and the kinase solution were mixed in wells of a polypropylene plate, and were caused to react at room temperature for one hour.
3) A termination buffer (QuickScout Screening Assist MSA; Cama Biosciences Inc.)
was added thereto to stop the reaction.
4) Substrate peptides and phosphorylated peptides in the reaction solutions were separated and quantified in LabChip™ System (PerkinElmer Co., Ltd.).
5) Kinase reaction activities were evaluated based on a product ratio (P/(P+S)) calculated from a peak height of the substrate peptide (S) and a peak height of the phosphorylated peptide (P).
With `O=C(Nc1cc(F)ccc1N1CCCCC1)c1ccncc1` [Compound 2], the IC50 was determined as 13.1 µM.
The figure for `Fc1ccc(N2CCCCCC2)c(NC(=S)c2ccncc2)c1` [Compound 3] is 13.3 µM; for `O=C(Nc1cc(F)ccc1N1CCCCCC1)c1ccncc1` [Compound 4] it is 13.7 µM.
